Laboratory results reported in publication PMC4363092 (Journal of medicinal chemistry, 2014).

Tests used:
TNAP = target: T1, TNAP (Homo sapiens, UniProt P05186); test: TNAP stability assay: hydrolysis by TNAP; type: in vitro ADME; conditions: 1 h, pH 9, 100 μM (data not shown)
T1 sequence (P05186 18-502 limits assumed): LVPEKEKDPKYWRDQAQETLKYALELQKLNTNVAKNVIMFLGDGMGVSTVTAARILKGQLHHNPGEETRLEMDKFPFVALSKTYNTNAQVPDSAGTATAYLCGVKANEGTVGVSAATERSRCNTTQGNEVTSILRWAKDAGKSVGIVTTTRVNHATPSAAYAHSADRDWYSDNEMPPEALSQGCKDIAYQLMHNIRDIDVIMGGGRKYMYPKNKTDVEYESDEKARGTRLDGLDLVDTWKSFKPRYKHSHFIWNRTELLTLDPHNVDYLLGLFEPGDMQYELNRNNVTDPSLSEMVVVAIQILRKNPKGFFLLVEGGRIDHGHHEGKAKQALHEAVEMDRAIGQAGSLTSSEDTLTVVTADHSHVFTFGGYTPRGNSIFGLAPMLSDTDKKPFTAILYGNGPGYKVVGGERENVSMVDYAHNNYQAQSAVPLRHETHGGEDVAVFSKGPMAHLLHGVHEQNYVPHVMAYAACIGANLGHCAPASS

P2Y1 receptor = P2Y1 receptor (Homo sapiens, UniProt P47900); test: [Ca2+]i elevation in 1321N1 astrocytoma cells expressing GFP-P2Y1 receptor; type: cell-based; conditions: EC50 of the nucleotide in relation to the EC50 of ATP
P2Y1 receptor, sequence (P47900 whole entry): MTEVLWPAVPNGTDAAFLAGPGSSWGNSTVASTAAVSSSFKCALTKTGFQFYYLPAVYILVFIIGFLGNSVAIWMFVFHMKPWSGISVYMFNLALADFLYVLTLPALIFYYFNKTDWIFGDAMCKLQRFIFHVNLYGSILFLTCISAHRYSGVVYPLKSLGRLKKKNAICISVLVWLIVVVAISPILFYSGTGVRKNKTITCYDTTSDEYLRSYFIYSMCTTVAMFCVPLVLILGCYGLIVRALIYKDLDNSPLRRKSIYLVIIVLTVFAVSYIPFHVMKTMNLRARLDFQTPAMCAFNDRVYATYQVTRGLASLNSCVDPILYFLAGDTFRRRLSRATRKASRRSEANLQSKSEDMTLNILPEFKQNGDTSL

## Nc1ncnc2c1ncn2[C@@H]1O[C@H](COP(=O)(O)OP(=O)(O)OP(=O)(O)O)[C@@H](O)[C@H]1O [ATP, reference compound]
TNAP
  hydrolysis by TNAP: 100%
P2Y1 receptor
  increase in efficacy vs ATP, P2Y1: 1
